Experimental data from patent publication US20240390471A1, “COMPOUNDS AND ADJUVANT FORMULATIONS USEFUL IN PNEUMOCOCCAL VACCINES” (Merck Sharp & Dohme LLC, priority 2023, published 2024).

Columns and labels:
human TLR8 = target: T1, human TLR8 (Homo sapiens, UniProt Q9NR97); assay: Cell-based TLR 7/8 assay, HEK-Blue TLR8 cells (SEAP reporter); settings: based on Compound concentration only; Compounds formulated as SNEs; read-out: huTLR8 EC50 (converted)
T1 construct: host or cells: HEK-Blue 293 cells expressing human TLR8
T1 sequence (Q9NR97 27-1041): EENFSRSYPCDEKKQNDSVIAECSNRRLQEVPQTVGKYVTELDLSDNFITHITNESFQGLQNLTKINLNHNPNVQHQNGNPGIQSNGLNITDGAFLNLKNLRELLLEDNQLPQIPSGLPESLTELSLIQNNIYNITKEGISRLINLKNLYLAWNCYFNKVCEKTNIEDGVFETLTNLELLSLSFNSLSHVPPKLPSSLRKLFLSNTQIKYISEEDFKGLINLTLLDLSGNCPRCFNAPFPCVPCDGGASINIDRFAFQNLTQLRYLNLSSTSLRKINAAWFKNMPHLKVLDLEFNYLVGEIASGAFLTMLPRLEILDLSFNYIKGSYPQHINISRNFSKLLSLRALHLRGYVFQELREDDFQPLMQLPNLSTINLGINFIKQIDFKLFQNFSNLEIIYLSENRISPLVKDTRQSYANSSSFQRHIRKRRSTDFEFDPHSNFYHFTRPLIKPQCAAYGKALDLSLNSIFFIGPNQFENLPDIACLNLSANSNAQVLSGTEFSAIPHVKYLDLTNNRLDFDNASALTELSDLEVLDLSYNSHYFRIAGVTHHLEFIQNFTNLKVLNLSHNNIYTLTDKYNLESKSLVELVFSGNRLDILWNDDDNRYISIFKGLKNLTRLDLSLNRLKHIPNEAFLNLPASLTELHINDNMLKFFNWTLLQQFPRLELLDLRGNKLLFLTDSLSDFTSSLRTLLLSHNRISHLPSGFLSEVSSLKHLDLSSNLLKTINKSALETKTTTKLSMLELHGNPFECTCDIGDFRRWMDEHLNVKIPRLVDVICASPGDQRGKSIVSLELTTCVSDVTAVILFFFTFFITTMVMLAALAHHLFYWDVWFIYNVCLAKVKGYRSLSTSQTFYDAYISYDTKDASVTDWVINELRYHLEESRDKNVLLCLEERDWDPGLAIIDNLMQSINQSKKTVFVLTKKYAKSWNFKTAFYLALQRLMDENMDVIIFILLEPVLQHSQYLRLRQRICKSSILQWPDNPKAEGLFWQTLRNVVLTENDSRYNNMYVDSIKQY
Description: (§1) HEK-Blue™ TLR7 and TLR8 cells (InvivoGen) were designed to assess the stimulation of TLR7 and TLR8 by monitoring the activation of NF-κB and AP-1. Compound B-1-SNE samples were diluted 1:2 across an 8-point titration in diluent buffer histidine/PS-20 in a sterile V-bottom plate. 20 μL of samples were transferred to corresponding wells of two flat bottom assay plates. Media was aspirated from HEK-Blue™ human TLR 7 and TLR 8 cells (T-75 flasks) and gently rinsed with pre-warmed (37° C.) DPBS for a total volume of 5 mL/flask. The DPBS was gently removed from the cells and cells were gently manually dislodged and resuspended in 2 mL of DPBS. Cell assay suspensions were then prepared at approximately 2.2×10^5 cells per mL of HEK-Blue™ detection medium (InvivoGen). 180 μL of cell suspension in detection medium was added to each well of the two flat bottom assay plates containing the diluted Compound B-1-SNE samples for a final dilution of sample equaling 1:10 (180 μL of cell suspension in detection medium and 20 μL of sample). The cells were then incubated at 37° C. in 5% CO2 for 20 hrs. The reporter gene, NF-Kb, induces the production of secreted embryonic alkaline phosphatase (SEAP) when stimulated and can be monitored using the vendor supplied SEAP detection kit. SEAP colorimetric changes were read at an absorbance of 640 nm using a SpectroMax Stakmax plate reader. […] EC50 values were calculated based on total Compound B-1-SNE concentration using GraphPad Prism Software and analyzed using agonist vs. response variable slope (four parameters) least squares fit.
(§2) Further to the description in Example 10, a cell-based activation system was used to assess activity of the Compound-formulated nanoemulsion systems, prepared as described in examples, supra. HEK-Blue™ TLR7 and TLR8 cells (InvivoGen) were designed to assess the stimulation of TLR7 and TLR8 by monitoring the activation of NF-κB and AP-1. Compound-SNE samples were diluted 1:2 across an 8-point titration in diluent buffer histidine/PS-20 in a sterile V-bottom plate. 20 μL of samples were transferred to corresponding wells of two flat bottom assay plates. Media was aspirated from HEK-Blue™ human TLR 7 and TLR 8 cells (T-75 flasks) and gently rinsed with pre-warmed (37° C.) DPBS for a total volume of 5 mL/flask. The DPBS was gently removed from the cells and cells were gently manually dislodged and resuspended in 2 mL of DPBS. Cell assay suspensions were then prepared at approximately 2.2×10^5 cells per mL of HEK-Blue™ detection medium (InvivoGen). 180 μL of cell suspension in detection medium was added to each well of the two flat bottom assay plates containing the diluted Compound-SNE samples for a final dilution of sample equaling 1:10 (180 μL of cell suspension in detection medium and 20 μL of sample). The cells were then incubated at 37° C. in 5% CO2 for 20 hrs. The reporter gene, NF-Kb, induces the production of secreted embryonic alkaline phosphatase (SLAP) when stimulated and can be monitored using the vendor supplied SLAP detection kit. SLAP colorimetric changes were read at an absorbance of 640 nm using a SpectroMax Stakmax plate reader. EC50s were calculated based on Compound concentration only, not total Compound-SNE concentration (Table 6) using GraphPad Prism Software and analyzed using agonist vs. response variable slope (four parameters) least squares fit.

human TLR7 = target: T2, human TLR7 (Homo sapiens, UniProt Q9NYK1); assay: Cell-based TLR 7/8 assay, HEK-Blue TLR7 cells (SEAP reporter); settings: based on Compound concentration only; Compounds formulated as SNEs; read-out: huTLR7 EC50 (converted)
T2 construct: host or cells: HEK-Blue 293 cells expressing human TLR7
T2 sequence (Q9NYK1 27-1049): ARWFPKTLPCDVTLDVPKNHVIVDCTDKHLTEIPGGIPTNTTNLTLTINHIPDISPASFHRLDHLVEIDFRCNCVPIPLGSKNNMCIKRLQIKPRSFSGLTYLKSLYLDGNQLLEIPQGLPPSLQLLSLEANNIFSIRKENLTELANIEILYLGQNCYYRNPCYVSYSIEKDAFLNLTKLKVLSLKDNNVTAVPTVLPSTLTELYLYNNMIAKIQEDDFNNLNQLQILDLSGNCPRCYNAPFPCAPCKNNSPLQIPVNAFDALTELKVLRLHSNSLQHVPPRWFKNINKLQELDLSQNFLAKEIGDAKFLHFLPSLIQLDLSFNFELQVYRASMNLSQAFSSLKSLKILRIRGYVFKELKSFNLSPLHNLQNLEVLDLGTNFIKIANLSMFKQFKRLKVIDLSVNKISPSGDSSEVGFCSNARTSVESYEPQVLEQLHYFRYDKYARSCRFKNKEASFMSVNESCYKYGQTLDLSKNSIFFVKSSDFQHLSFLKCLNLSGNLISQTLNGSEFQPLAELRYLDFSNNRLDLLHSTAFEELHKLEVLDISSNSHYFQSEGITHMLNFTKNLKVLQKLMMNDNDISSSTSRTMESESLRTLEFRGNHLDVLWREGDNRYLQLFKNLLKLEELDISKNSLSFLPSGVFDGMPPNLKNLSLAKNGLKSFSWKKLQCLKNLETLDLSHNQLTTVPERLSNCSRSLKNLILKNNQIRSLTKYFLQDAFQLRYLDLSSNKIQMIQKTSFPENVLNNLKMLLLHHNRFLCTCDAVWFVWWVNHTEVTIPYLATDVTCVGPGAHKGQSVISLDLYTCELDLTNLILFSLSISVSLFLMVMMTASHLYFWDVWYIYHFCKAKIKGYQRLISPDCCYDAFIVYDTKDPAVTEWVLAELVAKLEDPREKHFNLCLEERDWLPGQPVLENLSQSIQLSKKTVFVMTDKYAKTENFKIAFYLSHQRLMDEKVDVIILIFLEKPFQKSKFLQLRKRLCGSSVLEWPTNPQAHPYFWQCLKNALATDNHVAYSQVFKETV
Description: as §1, §2

| EC50 (human TLR8) | EC50 (human TLR7) | Structure (SMILES) |
| --- | --- | --- |
| 389 nM | 389 nM | CCCCC/C=C\C/C=C\CCCCCCCC(=O)NCCCCC(=O)N1CCN(c2ccc(Cn3cc4nc(N)nc(NCCCC)c4n3)c(OC)c2)CC1 [Compound B-4, (9Z,12Z)—N-(5-(4-(4-((5-amino-7-(butylamino)-2H-pyrazolo[4,3-d]pyrimidin-2-yl)methyl)-3-methoxyphenyl)piperazin-1-yl)-5-oxopentyl)octadeca-9,12-dienamide] |
| 93.2 nM | 639 nM | CCCCCCCCCCCCCCCCCC(=O)NCCCC(=O)N(C)Cc1cc(OC)c(Cn2cc3nc(N)nc(NCCCC)c3n2)c(OC)c1 [Compound C-5, N-(4-((4-((5-amino-7-(butylamino)-2H-pyrazolo[4,3-d]pyrimidin-2-yl)methyl)-3,5-dimethoxybenzyl)(methyl)amino)-4-oxobutyl)stearamide] |
| 401 nM | 3070 nM | CCCCCCCCCCCCCCCCCC(=O)NCCC(=O)N1CCN(c2ccc(Cn3cc4nc(N)nc(NCCCC)c4n3)c(OC)c2)CC1 [Compound B-11, N-(3-(4-(4-((5-amino-7-(butylamino)-2H-pyrazolo[4,3-d]pyrimidin-2-yl)methyl)-3-methoxyphenyl)piperazin-1-yl)-3-oxopropyl)stearamide] |
| 163 nM | 503 nM | CCCCCCCC/C=C\CCCCCCCC(=O)NCCCCN(C)Cc1cc(OC)c(Cn2cc3nc(N)nc(NCCCC)c3n2)c(OC)c1 [Compound C-3, N-(4-((4-((5-amino-7-(butylamino)-2H-pyrazolo[4,3-d]pyrimidin-2-yl)methyl)-3,5-dimethoxybenzyl)(methyl)amino)butyl)oleamide] |
| 5370 nM | 14900 nM | CCCCCCCCCCCCCCCCCC(=O)NCCCCC(=O)N1CCN(c2cc(OC)c(Cn3cc4nc(N)nc(NCCCC)c4n3)c(OC)c2)CC1 [Compound A-1, N-(5-(4-(4-((5-amino-7-(butylamino)-2H-pyrazolo[4,3-d]pyrimidin-2-yl)methyl)-3,5-dimethoxyphenyl)piperazin-1-yl)-5-oxopentyl)stearamide] |
| 2590 nM | 4190 nM | CCCCCCCCCCCCCCCCCC(=O)NCCCCC(=O)N1CCC(c2ccc(Cn3cc4nc(N)nc(NCCCC)c4n3)c(OC)c2)CC1 [Compound B-6, N-(5-(4-(4-((5-amino-7-(butylamino)-2H-pyrazolo[4,3-d]pyrimidin-2-yl)methyl)-3-methoxyphenyl)piperidin-1-yl)-5-oxopentyl)stearamide] |
| 13800 nM | 23700 nM | CCCCCCCCCCCCCCCCCC(=O)NCCCOC(=O)N1CCN(c2ccc(Cn3cc4nc(N)nc(NCCCC)c4n3)c(OC)c2)CC1 [Compound D-3, 3-stearamidopropyl 4-(4-((5-amino-7-(butylamino)-2H-pyrazolo[4,3-d]pyrimidin-2-yl)methyl)-3-methoxyphenyl)piperazine-1-carboxylate] |
| 129 nM | 155 nM | CCCCCCCC/C=C\CCCCCCCC(=O)NCCCCC(=O)N1CCN(c2ccc(Cn3cc4nc(N)nc(NCCCC)c4n3)c(OC)c2)CC1 [Compound B-3, N-(5-(4-(4-((5-amino-7-(butylamino)-2H-pyrazolo[4,3-d]pyrimidin-2-yl)methyl)-3-methoxyphenyl)piperazin-1-yl)-5-oxopentyl)oleamide] |
| 25500 nM | 23400 nM | CCCCCCCCCCCCCCCCCC(=O)NCCCCCCC(=O)N1CCN(c2ccc(Cn3cc4nc(N)nc(NCCCC)c4n3)c(OC)c2)CC1 [Compound B-12, N-(7-(4-(4-((5-amino-7-(butylamino)-2H-pyrazolo[4,3-d]pyrimidin-2-yl)methyl)-3-methoxyphenyl)piperazin-1-yl)-7-oxoheptyl)stearamide] |
| 95.5 nM | 259 nM | CCCCC/C=C\C/C=C\CCCCCCCC(=O)NCCCCN(C)Cc1cc(OC)c(Cn2cc3nc(N)nc(NCCCC)c3n2)c(OC)c1 [Compound C-1, (9Z,12Z)—N-(4-((4-((5-amino-7-(butylamino)-2H-pyrazolo[4,3-d]pyrimidin-2-yl)methyl)-3,5-dimethoxybenzyl)(methyl)amino)butyl)octadeca-9,12-dienamide] |
| 306 nM | 208 nM | CCCCCCCCCCCCCC(=O)NCCCCC(=O)N1CCN(c2ccc(Cn3cc4nc(N)nc(NCCCC)c4n3)c(OC)c2)CC1 [Compound B-2, N-(5-(4-(4-((5-amino-7-(butylamino)-2H-pyrazolo[4,3-d]pyrimidin-2-yl)methyl)-3-methoxyphenyl)piperazin-1-yl)-5-oxopentyl)tetradecanamide] |
